For three compounds, IC50 and melting point results are on record in paper PMC9097188, “Design, Synthesis, and Molecular Modeling Studies of a Novel Benzimidazole as an Aromatase Inhibitor” (ACS Omega, 2022).

Like-named read-outs stand apart in the source and are kept apart here.

For one series, the target named is T1, human aromatase (Homo sapiens, UniProt P11511).
T1 construct: purchased BioVision
T1 sequence (P11511 1-503): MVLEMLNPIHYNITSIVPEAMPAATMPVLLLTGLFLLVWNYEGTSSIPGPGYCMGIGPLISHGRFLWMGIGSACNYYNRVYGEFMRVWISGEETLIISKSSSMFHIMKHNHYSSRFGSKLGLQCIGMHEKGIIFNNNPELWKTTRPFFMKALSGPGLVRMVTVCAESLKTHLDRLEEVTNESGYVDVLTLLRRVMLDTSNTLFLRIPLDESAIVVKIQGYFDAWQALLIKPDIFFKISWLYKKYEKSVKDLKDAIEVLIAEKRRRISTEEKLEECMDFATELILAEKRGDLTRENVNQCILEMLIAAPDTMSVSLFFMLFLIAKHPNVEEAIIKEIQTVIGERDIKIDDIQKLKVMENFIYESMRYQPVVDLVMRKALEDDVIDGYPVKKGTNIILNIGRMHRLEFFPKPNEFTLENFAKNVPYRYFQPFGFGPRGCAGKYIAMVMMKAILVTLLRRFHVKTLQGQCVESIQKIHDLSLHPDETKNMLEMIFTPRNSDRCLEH
Description: Aromatase (CYP19A) Inhibitor Screening Kit (Fluorimetric), BioVision. The series is classed as biochemical. From the text: An in vitro fluorescence-based test (Aromatase (CYP19A) Inhibitor Screening Kit (Fluorimetric), BioVision) was used to determine the inhibitory activity of the produced compounds against human aromatase.
The BioVision Aromatase (CYP19A) Inhibitor Screening Kit (Fluorometric) was used to carry out this experiment.

The test system of series [1] is C6 (rat glioma cell line). Description: MTT cytotoxicity assay, C6. The conditions noted are these: mean of four independent studies, read-out: IC50 against C6. It counts as cell-based. Here is the method:
(§1) In this study, all compounds were tested for antiproliferative activity using an MTT assay with doxorubicin as a control against MCF-7 (human breast adenocarcinoma cell line), A549 (lung carcinoma cell line), HepG2 (human liver carcinoma cell line), HeLa (cervical cell line), and C6 (rat glioma cell line) cell lines. Table 1 summarizes the results of four independent studies as the mean IC50 value (half-maximum inhibitory concentration).
(§2) MTT tests were used to screen the anticancer activities of compounds 5a–i. The MTT assays were carried out as stated previously.[16],[17] The anticancer activity of the final compounds was tested on […]: A549 (lung carcinoma cell line), HeLa (cervical cell line), MCF-7 (human breast adenocarcinoma cell line), HepG2 (human liver carcinoma cell line), C6 (rat glioma cell line), and NIH3T3 […] (mouse embryo fibroblast cell line). In the MTT experiments, doxorubicin and Hoechst 33342 were employed as reference drugs.

The subject of series [2] is HepG2 (human liver carcinoma cell line). Description: MTT cytotoxicity assay, HepG2. It counts as cell-based. Particulars: mean of four independent studies, read-out: IC50 against HepG2. Here is the method: as §1, §2
The subject of series [3] is A549 (lung carcinoma cell line). The experiment in a line: MTT cytotoxicity assay, A549. It counts as cell-based. The conditions noted are these: Homo sapiens, mean of four independent studies, read-out: IC50 against A549. As to the method:
as §1, §2
In general terms: Formazan colour is commonly taken as a measure of viable cells.

Series [4] has as its system HeLa (cervical cell line). Description: MTT cytotoxicity assay, HeLa. It counts as cell-based. The conditions noted are these: Homo sapiens, mean of four independent studies, read-out: IC50 against HeLa. Here is the method: as §1, §2
Series [5] deals with MCF-7 (human breast adenocarcinoma cell line). Description: MTT cytotoxicity assay, MCF-7. The series is classed as cell-based. The conditions noted are these: mean of four independent studies, read-out: IC50 against MCF-7. As to the method: as §1, §2
Where [6] appears, read: fluorimetric kit, compound dissolved in acetonitrile, read-out: IC50 aromatase inhibition.

One may read the IC50 as the concentration that gives 50% inhibition. As a reminder, the melting point is the temperature, or range, at which the solid turns liquid.

Compound `O=C(CSc1nnc(-c2ccc3nc(-c4ccc(O)cc4)[nH]c3c2)o1)N1CCN(Cc2ccccc2)CC1` [5a, 2-((5-(2-(4-Hydroxyphenyl)-1H-benzo[d]imidazol-6-yl)-1,3,4-oxadiazol-2-yl)thio)-1-(4-benzylpiperazin-1-yl)ethan-1-one] yielded a melting point of 266.5 to 267.9 °C. Moreover, the IC50 on human aromatase (setting [6]) worked out at 38.6 ± 1.13 µM. Moreover, in series [1], the IC50 was no less than 100 µM. The IC50 in series [2] is 38.8 ± 0.887 µM. For the same compound, the IC50 in series [3] is no less than 100 µM. Also, in series [4], the IC50 was no less than 100 µM. Moreover, in series [5] (Homo sapiens, MCF7, MTT assay), the IC50 was 9.96 ± 0.312 µM. In series [5] (MTT assay), the IC50 was 9.06 ± 0.311 µM.
`CCOc1ccc(-c2nc3ccc(-c4nnc(SCC(=O)N5CCN(Cc6ccc(F)cc6)CC5)o4)cc3[nH]2)cc1` [5i, 2-((5-(2-(4-Ethoxyphenyl)-1H-benzo[d]imidazol-6-yl)-1,3,4-oxadiazol-2-yl)thio)-1-(4-(4-fluorobenzyl)piperazin-1-yl)ethan-1-one] had a melting point of 189.9 to 191.4 °C. For the same compound, on human aromatase (setting [6]), the IC50 was determined as 80.4 ± 3.12 µM. Moreover, the IC50 in series [1] was 6 ± 0.227 µM. The IC50 in series [2] was found to be 28.7 ± 1.22 µM. Besides, the IC50 in series [3] worked out at 4.52 ± 0.21 µM. The IC50 in series [4] was 42 ± 1.32 µM. Further, the IC50 in series [5] (Homo sapiens, MCF7, MTT assay) came to 9.06 ± 0.311 µM. Further, in series [5] (MTT assay), the IC50 stood at 9.96 ± 0.312 µM.
Regarding `O=C(CSc1nnc(-c2ccc3nc(-c4ccc(O)cc4)[nH]c3c2)o1)N1CCN(Cc2ccc(Cl)cc2)CC1` [5b, 2-((5-(2-(4-Hydroxyphenyl)-1H-benzo[d]imidazol-6-yl)-1,3,4-oxadiazol-2-yl)thio)-1-(4-(4-chlorobenzyl)piperazin-1-yl)ethan-1-one], the melting point was in the range of 155.5 to 157.4 °C. Also, the IC50 on human aromatase (experimental validation of 3D-QSAR model, read-out: IC50 (aromatase, Table 5)) is 1.48 µM. Moreover, the IC50 on human aromatase (setting [6]) is 1.47 ± 0.062 µM. The IC50 in series [1] stood at 24.7 ± 1.21 µM. Further, in series [2], the IC50 turned out to be 55.2 ± 1.46 µM. In addition, the IC50 in series [3] is no less than 100 µM. The IC50 in series [4] is no less than 100 µM. For the same compound, the IC50 in series [5] (Homo sapiens, MCF7, MTT assay) stood at 5.13 ± 0.211 µM. In addition, in series [5] (MTT assay), the IC50 stood at 6.55 ± 0.287 µM.
